Experimental data as given in ChEMBL document CHEMBL5154756 (Bioorg Med Chem, 2022).
Active and inactive are the calls of the source. No cut-off for these calls is given here.

Columns and labels:
[1] = system: Hep 3B2; experiment: Antiproliferative activity against human Hep3B cells measured after 72 hrs by MTT assay; assay type: functional, cell-based
[2] = system: MCF7; experiment: Antiproliferative activity against human MCF7 cells over expressing GLUT1 measured after 72 hrs by MTT assay; assay type: functional, cell-based; details: MCF7, 72 h
[3] = system: HT-29; experiment: Antiproliferative activity against human HT-29 cells over expressing GLUT1 measured after 72 hrs by MTT assay; assay type: functional, cell-based; details: HT-29, 72 h
[4] = Selectivity ratio of IC50 for human Hep3B cells to IC50 for human MCF7 cells; assay type: functional
[5] = Selectivity ratio of IC50 for human Hep3B cells to IC50 for human HT-29 cells; assay type: functional
[6] = system: HT-29; experiment: Antiproliferative activity against human HT-29 cells over expressing GLUT1 assessed as cell viability at 8 uM measured after 48 hrs by MTT assay relative to control; assay type: functional; details: read-out: Activity
[7] = target: T1, Tubulin (Homo sapiens) (UniProt P68371+Q9H4B7+P0DPH7+P68366+Q13509+Q71U36+P04350+Q3ZCM7+P07437+P68363+Q9BQE3+Q6PEY2+Q13885+Q9BVA1+Q9BUF5); experiment: Inhibition of tubulin polymerization in human A549 cells assessed as appearance of short microtubule at 0.766 uM measured after 24 hrs by immunofluorescence confocal microscopic analysis; assay type: cell-based
[8] = system: HT-29; experiment: Antiproliferative activity against human HT-29 cells over expressing GLUT1 assessed as cell viability at 4 uM measured after 48 hrs in presence of GLUT1-specific inhibitor quercetin by MTT assay relative to control; assay type: functional; details: read-out: Activity
[9] = system: HT-29; experiment: Antiproliferative activity against human HT-29 cells over expressing GLUT1 assessed as cell viability at 8 uM measured after 48 hrs in presence of GLUT1-specific inhibitor quercetin by MTT assay relative to control; assay type: functional; details: read-out: Activity
[10] = Cytotoxicity against HUVEC measured after 72 hrs by MTT assay; assay type: toxicity, cell-based; details: human, HUVEC cells
[11] = target: Tubulin (Sus scrofa) (UniProt P02554+P02550); experiment: Inhibition of porcine brain tubulin polymerization assessed as inhibition of microtubule polymerization measured at 1 min interval for 90 mins by microplate reader method; details: dose 12.5-25 µM, DDE = dose-dependent effect
Chain of Tubulin (Sus scrofa) (P02550 whole entry, looked up): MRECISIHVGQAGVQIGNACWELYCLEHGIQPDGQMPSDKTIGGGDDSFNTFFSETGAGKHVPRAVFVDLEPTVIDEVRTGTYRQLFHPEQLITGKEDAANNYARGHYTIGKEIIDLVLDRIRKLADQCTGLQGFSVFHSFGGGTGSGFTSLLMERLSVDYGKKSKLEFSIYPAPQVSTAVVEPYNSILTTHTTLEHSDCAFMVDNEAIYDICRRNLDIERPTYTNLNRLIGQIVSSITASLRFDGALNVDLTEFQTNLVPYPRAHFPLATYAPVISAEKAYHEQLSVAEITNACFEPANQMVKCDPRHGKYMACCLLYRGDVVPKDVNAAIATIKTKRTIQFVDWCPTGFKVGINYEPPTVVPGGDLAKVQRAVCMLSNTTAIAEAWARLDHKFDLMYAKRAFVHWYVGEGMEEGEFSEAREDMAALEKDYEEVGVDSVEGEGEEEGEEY
Chain of Tubulin (Sus scrofa) (P02554 whole entry, looked up): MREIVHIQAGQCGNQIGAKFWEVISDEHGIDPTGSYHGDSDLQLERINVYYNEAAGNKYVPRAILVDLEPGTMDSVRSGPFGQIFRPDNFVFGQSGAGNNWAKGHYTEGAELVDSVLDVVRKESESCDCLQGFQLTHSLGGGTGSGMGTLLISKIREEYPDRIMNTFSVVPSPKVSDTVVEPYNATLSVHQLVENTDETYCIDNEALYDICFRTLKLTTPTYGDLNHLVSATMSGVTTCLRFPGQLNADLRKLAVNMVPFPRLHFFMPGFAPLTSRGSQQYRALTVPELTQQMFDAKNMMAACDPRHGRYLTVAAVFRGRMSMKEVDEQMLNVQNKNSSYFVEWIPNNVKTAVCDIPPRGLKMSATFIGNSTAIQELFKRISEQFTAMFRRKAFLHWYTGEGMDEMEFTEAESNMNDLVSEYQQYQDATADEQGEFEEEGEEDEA

[12] = target: T1, Tubulin (Homo sapiens); experiment: Inhibition of tubulin polymerization in human A549 cells assessed as appearance of wrapped microtubule around nucleus at 0.766 uM measured after 24 hrs by immunofluorescence confocal microscopic analysis; assay type: cell-based
[13] = system: HT-29; experiment: Antiproliferative activity against human HT-29 cells over expressing GLUT1 assessed as cell viability at 4 uM measured after 48 hrs by MTT assay relative to control; assay type: functional; details: read-out: Activity
[14] = system: HT-29; experiment: Antiproliferative activity against human HT-29 cells over expressing GLUT1 assessed as cell viability measured after 48 hrs in presence of GLUT1-specific inhibitor quercetin by MTT assay relative to control; assay type: functional
[15] = system: HT-29; experiment: Antiproliferative activity against human HT-29 cells over expressing GLUT1 assessed as cell viability measured after 48 hrs by MTT assay relative to control; assay type: functional

SMILES	IC50 [1] [µM]	IC50 [2] [µM]	IC50 [3] [µM]	Ratio IC50 [4]	Ratio IC50 [5]	further results
COc1cc2c(c(OC)c1OC)-c1ccc(OC)c(=O)cc1[C@@H](NC(=O)CCC(=O)OC[C@H]1OC(O)[C@H](O)[C@@H](O)[C@@H]1O)CC2 (some centres not stated)	6.35	1.15	1.09	5.52	5.83	
COc1cc2c(c(OC)c1OC)-c1ccc(OC)c(=O)cc1[C@@H](NC(=O)COCC(=O)O[C@H]1[C@H](O)[C@@H](CO)OC(O)[C@@H]1O)CC2 (some centres not stated)	> 10	1.2	0.83			
COc1cc2c(c(OC)c1OC)-c1ccc(OC)c(=O)cc1[C@@H](NC(=O)COCC(=O)OC[C@H]1OC(O)[C@H](O)[C@@H](O)[C@@H]1O)CC2 (some centres not stated)	4.57	3.08	0.24	1.48	19.04	
COc1cc2c(c(OC)c1OC)-c1ccc(OC)c(=O)cc1[C@@H](NC(=O)CCCCC(=O)OC[C@H]1OC(O)[C@H](O)[C@@H](O)[C@@H]1O)CC2 (some centres not stated)	> 10	> 10	9.73			
COc1cc2c(c(OC)c1OC)-c1ccc(OC)c(=O)cc1[C@@H](NC(=O)CCC(=O)OC[C@H]1OC(O)[C@@H](O)[C@@H](O)[C@@H]1O)CC2 (some centres not stated)	2.91	0.67		4.34		
COc1cc2c(c(OC)c1OC)-c1ccc(OC)c(=O)cc1[C@@H](NC(=O)CCCCC(=O)OC[C@H]1OC(O)[C@@H](O)[C@@H](O)[C@@H]1O)CC2 (some centres not stated)	> 10	> 10	> 10			
COc1cc2c(c(OC)c1OC)-c1ccc(OC)c(=O)cc1[C@@H](NC(=O)CCCC(=O)OC[C@H]1OC(O)[C@@H](O)[C@@H](O)[C@@H]1O)CC2 (some centres not stated)	> 10	> 10	> 10			
COc1cc2c(c(OC)c1OC)-c1ccc(OC)c(=O)cc1[C@@H](NC(=O)COCC(=O)OC[C@H]1OC(O)[C@@H](O)[C@@H](O)[C@@H]1O)CC2 (some centres not stated)	6.43	2.2	2.93	2.92	2.19	
COc1cc2c(c(OC)c1OC)-c1ccc(OC)c(=O)cc1[C@@H](NC(=O)CSCC(=O)O[C@H]1[C@H](O)[C@@H](CO)OC(O)[C@@H]1O)CC2 (some centres not stated)	8.56	0.65	0.79	13.17	10.84	viability at 8 µM [6]: 12.5%; inhibition [7]: Active; viability at 4 µM [8]: 22.8%; viability at 8 µM [9]: 20.1%; IC50 at 72 h [10]: 1.88 µM; inhibition [11]: Dde; inhibition [12]: Active; viability at 4 µM [13]: 13.2%
COc1cc2c(c(OC)c1OC)-c1ccc(OC)c(=O)cc1[C@@H](NC(=O)CCCC(=O)OC[C@H]1OC(O)[C@H](O)[C@@H](O)[C@@H]1O)CC2 (some centres not stated)	> 10	> 10	4.14			
COc1cc2c(c(OC)c1OC)-c1ccc(OC)c(=O)cc1[C@@H](NC(=O)CSCC(=O)OC[C@H]1OC(O)[C@H](O)[C@@H](O)[C@@H]1O)CC2 (some centres not stated)	9.26	3.56	1.16	2.6	7.98	
COc1cc2c(c(OC)c1OC)-c1ccc(OC)c(=O)cc1[C@@H](NC(=O)CCC(=O)O[C@H]1[C@H](O)[C@@H](CO)OC(O)[C@@H]1O)CC2 (some centres not stated)	7.03	0.76	0.98	9.25	7.17	
COc1cc2c(c(OC)c1OC)-c1ccc(OC)c(=O)cc1[C@@H](NC(=O)CSCC(=O)OC[C@H]1OC(O)[C@@H](O)[C@@H](O)[C@@H]1O)CC2 (some centres not stated)	> 10	6.05	2.11			
COc1cc2c(c(OC)c1OC)-c1ccc(OC)c(=O)cc1[C@@H](NC(=O)CCCCC(=O)O[C@H]1[C@H](O)[C@@H](CO)OC(O)[C@@H]1O)CC2 (some centres not stated)	> 10	> 10	> 10			
COc1cc2c(c(OC)c1OC)-c1ccc(OC)c(=O)cc1[C@@H](NC(C)=O)CC2 [COLCHICINE]	0.14	0.043				Activity [14]: 14.8%; IC50 at 72 h [10]: 0.012 µM; Activity [15]: 12.7%
COc1cc2c(c(OC)c1OC)-c1ccc(OC)c(=O)cc1[C@@H](NC(=O)CCCC(=O)O[C@H]1[C@H](O)[C@@H](CO)OC(O)[C@@H]1O)CC2 (some centres not stated)	8.91	7.17	6.47	1.24	1.38	
